Experimental findings from PubChem BioAssay (NCI) are described below.

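Grown in 96-well plates, cells were treated for 48 hours with each compound at five concentrations. Insufficient inhibition: endpoint recorded as highest concentration tested. Here, GI50 denotes the concentration required for 50% inhibition of growth. Definition used: TGI = concentration required for complete inhibition of growth.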

What all share (experiment): NCI tumour cell line growth inhibition, 48 h
Assay [1] relates to CAKI-1 renal.
The test system of assay [2] is MCF7 breast.
Assay [3] concerns RXF 393 renal.
In assay [4] the test system is EKVX NSCLC.
Assay [5] deals with LOX IMVI melanoma.
Assay [6] deals with HT29 colon.
The test system of assay [7] is MDA-N.
Assay [8] deals with MOLT-4 leukemia.
The test system of assay [9] is SK-MEL-2 melanoma.
The subject of assay [10] is MDA-MB-435.

On to `COc1cc(O)c2c(=O)c(OC)c(-c3ccc(OC)c(OC)c3)oc2c1.[Zn+2]`, for which the TGI in [1] is over 100 µM; in assay [2] it was over 100 µM; in [3], 45.6 µM; in assay [4], over 100 µM; in assay [5], over 100 µM; in [6], over 100 µM. Besides, the TGI in assay [7] and in [8] was over 100 µM each time. Also, the GI50 in assay [2] is 92.3 µM; in assay [4], 25.7 µM; in [5], 7.68 µM; in assay [6], 41.8 µM; in assay [8] it was over 100 µM.
In the case of `NC(=S)N/N=C1\CC(c2ccccc2)Nc2ccccc21` (centres undefined), the TGI in assay [1] was over 100 µM; in assay [4], over 100 µM; in [5] it was over 100 µM; in assay [6], 48.5 µM; in assay [8], 73.2 µM.
On to `CC(=O)Oc1cc(/C=C/c2ccc(O)cc2)cc(OC(C)=O)c1`, for which the TGI was over 100 µM in [1]; over 100 µM in [2]; over 100 µM in [9]; over 100 µM in assay [3]; over 100 µM in assay [10]; 93.1 µM in assay [6]. The TGI in [8] stood at 63.2 µM.
`COc1ccc(OC)c([N+](=O)[O-])c1-c1nc2sc(C)c(C)n2c1/C=N/N=C(N)N`: the TGI in assay [1] was over 100 µM; in [2] it was 79.5 µM; in assay [9], 40.5 µM; in assay [3], over 100 µM; in assay [10], over 100 µM; in assay [4], over 100 µM. Further, the TGI in [5] is over 100 µM; in assay [6], over 100 µM; in assay [8] it was 40.4 µM.
`CC(=O)C(N=NC1CCC(S(=O)(=O)NB2N=CS2)CC1)C(=O)Nc1ccccc1C` (centres undefined): the TGI is 46.9 µM in assay [1]; 33.3 µM in assay [9]; 35.9 µM in assay [3]; 41.2 µM in assay [4]; 29.9 µM in assay [6]; over 100 µM in assay [8].
As for `C[N+]1(C)C/C(=C\c2ccc(O)cc2)C(=O)/C(=C/c2ccc(O)cc2)C1`, the TGI in [1], in assay [3], in assay [4], in [5], in [6] and in [8] was over 100 µM throughout.
Take `N=C(N)SCCN1CCCCC1`: the TGI in assay [1] is 72.9 µM; in [2] it was 34.3 µM; in assay [9] it was 17 µM; in assay [3], 32.6 µM; in [10], 52.7 µM; in [4], over 100 µM. Further, the TGI in [5] is 48.4 µM; in assay [6] it was over 100 µM; in assay [7], over 100 µM; in [8], 58 µM.
As for `Nc1ccc(S(=O)(=O)NCCS(=O)(=O)O)cc1`, the TGI in assay [1], in assay [9], in assay [3], in assay [10], in assay [4] and in assay [5] was over 100 µM throughout. In addition, the TGI in assay [6], in assay [7] and in assay [8] was over 100 µM in each case.
With `C[N+]1(c2ccccc2)C=C(c2ccccc2)SC1=S` (centres undefined), the TGI in assay [1], in assay [2], in assay [9], in assay [3], in assay [10] and in [4] was over 100 µM in each case. The TGI in [5] and in [6] was over 100 µM throughout.
Take `Cc1cccc(/C=C2/C(=O)Nc3ccccc32)n1`: the TGI in assay [1] was found to be 37.8 µM; in [2], 30.3 µM; in [9], 36.4 µM; in [3], 27.2 µM; in assay [10] it was 60.9 µM; in assay [4] it was 71.9 µM. The TGI in assay [5] is over 62.6 µM; in assay [6], over 100 µM; in [8], 44.5 µM.
As for `O=C1O/C(=C\C=C\CO)C=C1/C=C/CO`, the TGI in assay [1] is 28.3 µM; in assay [2], over 100 µM; in assay [9], 43.4 µM; in assay [3], 38.3 µM; in assay [10] it was over 100 µM; in assay [4], 35.5 µM. Also, the TGI in assay [5] was over 100 µM; in assay [6], 88.5 µM; in assay [7], 59.9 µM; in assay [8], over 100 µM.
On to `Cc1ncc(COP(=O)(O)O)c(C)c1O`, for which the TGI in assay [1], in assay [9], in assay [3], in assay [10], in assay [4] and in [5] was over 100 µM throughout. Further, the TGI in assay [6], in assay [7] and in [8] was over 100 µM in each case.
Regarding `CCOc1ccc(N=Nc2ccc(-c3ccc(N=Nc4c(O)ccc5cc(S(=O)(=O)O)cc(S(=O)(=O)O)c45)cc3)cc2)cc1`, the TGI in [1], in [2], in assay [9], in assay [3], in assay [10] and in assay [4] was over 100 µM in each case. The TGI in assay [6] and in [8] was over 100 µM throughout.
For the compound `CCCCCCCCc1ccc(CCC(N)(CO)CO)cc1`, the GI50 is 2.64 µM in [1]; 1.67 µM in assay [2]; 2.06 µM in [9]; 1.52 µM in [3]; 1.82 µM in assay [10]; 2.36 µM in assay [4]. Further, the results for the GI50 in assay [6] and in assay [8] were 1.76 µM and 1.64 µM, respectively. Besides, the TGI in [1] came out at 6.56 µM; in [2], 3.07 µM; in [9], 3.76 µM; in assay [3] it was 2.85 µM; in assay [10], 3.45 µM; in assay [4] it was 5.8 µM. Also, the TGI was 3.31 µM in assay [6] and 3.44 µM in assay [8].
As for `C=C(C[C@@H](O)[C@H](C)NC(=O)OCc1ccccc1)C(=O)OC(C)(C)C`, the TGI in assay [1], in assay [2], in [9], in [10], in assay [4] and in [5] was over 100 µM throughout. Besides, the TGI in assay [6], in [7] and in assay [8] was over 100 µM in each case.
In the case of `O=S(=O)([O-])[O-].[Fe+2].[OH2+]c1c(Cl)cc(Cl)cc1/C=N/Nc1ccccn1`, the TGI in [3] turned out to be 1.9 µM; in [4] it was 2.25 µM; in assay [5], 2.79 µM; in [6] it was 3.6 µM; in [8] it was 2.94 µM.
